US20240277796A1, “METHODS FOR INHIBITING RAS” (Revolution Medicines, Inc., priority 2021, published 2024)

Columns and labels:
[1] = system: SW1573; conditions: Canon et al., Nature 575:217-223 (2019); cited from earlier work
[2] = system: SW1573; conditions: Canon et al., Nature 575:217-223 (2019); cited from earlier work; remark: listed apart in the source
[3] = system: AsPC-1 (K-Ras G12D); experiment: pERK potency assay, AsPC-1; assay type: cell-based; conditions: Homo sapiens, ASPC1, read-out: IC50 in the pERK potency assay with respect to AsPC-1 (K-Ras G12D)
From the text: The purpose of this assay was to measure the ability of test compounds to inhibit K-Ras in cells. Activated K-Ras induces increased phosphorylation of ERK at Threonine 202 and Tyrosine 204 (pERK). This procedure measures a decrease in cellular pERK in response to test compounds. The procedure described below in NCI-H358 cells is applicable to K-Ras G12C.
Note: This protocol may be executed substituting other cell lines to characterize inhibitors of other RAS variants, including, for example, AsPC-1 (K-Ras G12D), Capan-1 (K-Ras G12V), or NCI-H1355 (K-Ras G13C).
NCI-H358 cells were grown and maintained using media and procedures recommended by the ATCC. On the day prior to compound addition, cells were plated in 384-well cell culture plates (40 μl/well) and grown overnight in a 37° C., 5% CO2 incubator. Test compounds were prepared in 10, 3-fold dilutions in DMSO, with a high concentration of 10 mM. […]
In some experiments, cellular pERK level was determined using the AlphaLISA SureFire Ultra p-ERK1/2 Assay Kit (PerkinElmer). […] Signal was read on an Envision plate reader (PerkinElmer) using standard AlphaLISA settings. […] Signal was plotted vs. the decadal logarithm of compound concentration, and IC50 was determined by fitting a 4-parameter sigmoidal concentration response model.

[4] = molecular target: K-Ras G13C (Homo sapiens, UniProt P01116, G13C); experiment: Raf-Ras (FRET or MOA) binding assay: disruption of BRAF RBD interaction with K-Ras G13C; conditions: with Cyclophilin A, TR-FRET; read-out: IC50 in the Raf-Ras (FRET or MOA) binding assay re: K-Ras G13C
From the text: Disruption of B-Raf Ras-Binding Domain (BRAF^RBD) Interaction with K-Ras by Compounds of the Invention (Also Called a FRET Assay or an MOA Assay)
Note—The following protocol describes a procedure for monitoring disruption of K-Ras G12C (GMP-PNP) binding to BRAF^RBD by a compound of the invention. This protocol may also be executed substituting other Ras proteins or nucleotides.
The purpose of this biochemical assay was to measure the ability of test compounds to facilitate ternary complex formation between a nucleotide-loaded K-Ras isoform and Cyclophilin A; the resulting ternary complex disrupts binding to a BRAF^RBD construct, inhibiting K-Ras signaling through a RAF effector. Data was reported as IC50 values.
In assay buffer containing 25 mM HEPES pH 7.3, 0.002% Tween20, 0.1% BSA, 100 mM NaCl and 5 mM MgCl2, tagless Cyclophilin A, His 6-K-Ras-GMPPNP, and GST-BRAF^RBD were combined in a 384-well assay plate at final concentrations of 25 μM, 12.5 nM and 50 nM, respectively. Compound was present in plate wells as a 10-point 3-fold dilution series starting at a final concentration of 30 μM. […] TR-FRET signal was read on a microplate reader (Ex 320 nm, Em 665/615 nm). […]

Chain of K-Ras G13C (P01116 1-188 isoform P01116-2 G13C): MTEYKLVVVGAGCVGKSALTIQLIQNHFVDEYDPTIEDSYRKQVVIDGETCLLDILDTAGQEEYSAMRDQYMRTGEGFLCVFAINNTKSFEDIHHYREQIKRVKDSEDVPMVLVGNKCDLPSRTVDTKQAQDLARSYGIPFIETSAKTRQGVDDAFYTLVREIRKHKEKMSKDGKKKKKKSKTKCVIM
Chain of K-Ras G13C (P62937 whole entry partner, the tested form may be a part): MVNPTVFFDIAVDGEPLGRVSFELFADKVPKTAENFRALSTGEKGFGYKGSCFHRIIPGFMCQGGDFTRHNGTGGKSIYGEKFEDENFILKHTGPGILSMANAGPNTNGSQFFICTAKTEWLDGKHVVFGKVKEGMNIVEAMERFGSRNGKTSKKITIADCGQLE

Compound	IC50 [3] [µM]	IC50 [4] [nM]	further results
C=CC(=O)N1CCN(c2nc(=O)n(-c3c(C)ccnc3C(C)C)c3nc(-c4c(O)cccc4F)c(F)cc23)[C@@H](C)C1 [AMG510]			sensitivity of cell line SW1573 to the inhibitor [1]: insensitive; sensitivity of cell line to RAS inhibitor [2]: insensitive
CCn1c(-c2cccnc2[C@H](C)OC)c2c3cc(ccc31)-c1csc(n1)C[C@H](NC(=O)[C@H](C1CCCC1)N1CC[C@]3(CCN(C(=O)[C@@]4(C)CN4)C3)C1)C(=O)N1CCC[C@H](N1)C(=O)OCC(C)(C)C2 [FA5]	> 8		
CCn1c(-c2cccnc2[C@H](C)OC)c2c3cc(ccc31)-c1cc(cc(C(F)F)c1)C[C@H](NC(=O)[C@H](C(C)C)N1CC[C@]3(CCN(C(=O)[C@@H]4N[C@@H]4C4CC4)C3)C1)C(=O)N1CCC[C@H](N1)C(=O)OCC(C)(C)C2 [FA17]	> 8		
CCn1c(-c2cccnc2[C@H](C)OC)c2c3cc(ccc31)-c1cccc(c1)C[C@H](NC(=O)[C@@H](COC1CN(C(=O)C#CC(C)(C)N(C)C)C1)N(C)C)C(=O)N1CCC[C@H](N1)C(=O)OCC(C)(C)C2 (atropisomer, axis not shown) [EA169]		> 1500	
CCn1c(-c2cccnc2[C@H](C)OC)c2c3cc(ccc31)N1CCS[C@@H](C[C@H](NC(=O)[C@@H](COC3CN(C(=O)C#CC(C)(C)N(C)C)C3)C(C)C)C(=O)N3CCC[C@H](N3)C(=O)OCC(C)(C)C2)C1 (atropisomer, axis not shown) [EA171]		> 1500	
